# Test results reported in article PMC10478803, “Contributions of the N-terminal flanking residues of an antigenic peptide from the Japanese cedar pollen allergen Cry j 1 to the T-cell activation by HLA-DP5” (International Immunology, 2023).
# What was measured:
# [1] = test system: CD4^+ T-cell clones (SU3–2, SU3–3, NM-4, and NM-7); assay: Cytokine production by T-cell clones; type: cell-based, human; conditions: HLA-DP5-transfected K562 cells as APCs, 24 h, Bio-Plex
# Protocol: Cloning of CD4^+ T cells was performed as described previously ([23]). A single, viable (7AAD^–), CD4^+, CFSE^dim cell was sorted into each well of a 96-well plate, which contained 100 μl of culture medium with feeder cells and cytokines, as described below. Irradiated (30 Gy) peptide-pulsed PBMCs (1.0 × 10^5) isolated from unrelated DPB1*05:01^+ donors were used as feeder cells in the cloning plates. Pooled human serum (5%) and IL-2 (100 U ml^−1) (Peprotech) were added at the indicated final concentrations to AIM-V medium (Life Technologies). Cells were fed every 7 days with fresh cytokine and peptide-pulsed PBMCs. Growing clones were identified by visual inspection, expanded into […] plates, and then tested for antigen specificity by ^3H-thymidine incorporation and cytokine production assays, using HLA-DP5 transfected K562 cells as antigen-presenting cells (APCs). […]
# Fig. 4. […] HLA-restriction of T-cell clones was determined by addingvarious monoclonal antibodies (mAbs): anti-HLA-DR mAb (L243, BioLegend), anti-HLA-DQ mAb (SPV-L3, Abcam) or anti-HLA-DP mAb (B7/21, Abcam), at a final concentration of 10 μg ml^−1. […] After 24 h, culture supernatants were collected and cytokine levels were measured using the Bio-Plex system (Bio-Rad). […] The T-cell surface activation marker CD137 of TCR(SU3–3)-TG40 and TCR(NM-4)-TG40 (GFP^+ 7AAD^− gated) was analyzed by flow cytometry. […]
# CD4^+ T cells = assay: CFSE assay of CD4^+ T-cell proliferation in PBMCs of HLA-DP5^+ CP patients; type: cell-based, human; conditions: PBMCs from HLA-DP5^+ CP patients
# Protocol: Peripheral blood was obtained from HLA-DP5^+ CP patients. Peripheral blood mononuclear cells (PBMCs) were isolated by a density gradient technique, using Ficoll-Paque PLUS. The research protocol for collecting and using PBMCs from allergic patients was approved by the Institutional Review Board of Kyushu University.
# The CFSE assay was performed as described previously ([24]). Briefly, PBMCs (1.0 × 10^7 cells ml^−1 in PBS) were incubated for 10 min with 5 μM CFSE (Molecular Probes). Staining was terminated by adding PBS containing 5% pooled human serum, and after the cells were washed three times in PBS containing 1% pooled human serum, they were resuspended in culture medium (RPMI-1640 containing 5% pooled human serum) at 2.0 × 10^6 cells ml^−1. Stained cells (2.0 × 10^6 cells well^−1, 1 ml) were cultured in 24-well plates with medium alone, pCj1 (final concentration, 10 μg ml^−1), or NF-pCj1 (10 μg ml^−1). After 7 days, the cells treated with each antigen were pooled, washed in PBS, and stained with anti-human CD4-allophycocyanin (IgG1, clone RPA-T4, BioLegend) and 7-amino-actinomycin D (7-AAD) (BD Pharmingen). Antigen-specific, viable CD4^+ T cells were identified as 7AAD^−, CD4^+, CFSE^dim cells, and the proliferation levels of these antigen-specific CD4^+ T cells were examined in each experiment.
sequence,measurement,setting,value
DKSMKVTVAFNQF [NF-pCj1],cytokine production on stimulation (in words),[1],"produced IL-5, IL-10, and IL-13"
same,CD4^+ T-cell proliferation and clone establishment (in words),CD4^+ T cells,many CD4^+ T cells proliferating
